# Data published in patent publication US9695330B2, “Liquid composition, pigment dispersion liquid, and aqueous ink composition for ink jet recording” (Seiko Epson Corporation, priority 2015, dated 2017).
# Assay: Distribution coefficient of water-octanol (logP), OECD Test Guideline 107
# Type: physicochemical
# Conditions: not given
logP,Structure (SMILES),logP (distribution coefficient of water-octanol)
,"CCCCCC(=O)OCC(O)CO (stereo not shown) [hexanoic acid 2,3-dihydroxypropyl]",0.85
,"CCCC(=O)OCC(O)CO (stereo not shown) [butyric acid 2,3-dihydroxypropyl]",-0.21
,"C=C(C)C(=O)OCC(O)CO (stereo not shown) [methacrylic acid 2,3-dihydroxypropyl]",−0.12
2.53,"CCCCC(CC)COCC(O)CO (stereo not shown) [3-(2-ethylhexyloxy)-1,2-propanediol]",
,"CCC(=O)OCC(O)CO (stereo not shown) [propionic acid 2,3-dihydroxypropyl]",−0.75

# Same assay, conditions: octanol/water
row,logP,Structure (SMILES)
1,0.9,"CCCCCOCC(O)CO (stereo not shown) [3-pentyloxy-1,2-propanediol]"
2,0.36,"CCCCCCOCC(O)CO (stereo not shown) [3-hexyloxy-1,2-propanediol]"
3,0.94,"CC(C)CCOCC(O)CO (stereo not shown) [3-isopentyloxy-1,2-propanediol]"
4,-0.43,"CCOCC(O)CO (stereo not shown) [3-ethoxy-1,2-propanediol]"

# Second part, the compound before the results:
row,Structure (SMILES),logP
1,"CC1CCC(C(C)C)C(OCC(O)CO)C1 (stereo not shown) [3-menthyloxy-1,2-propanediol]",2.6
2,CC(=O)OCC(COC(C)=O)OC(C)=O [glycerol triacetate],-0.24
3,"OCC(O)COC1CCCCC1 (stereo not shown) [3-cyclohexyloxy-1,2-propanediol]",1
4,"C=CCOCC(O)CO (stereo not shown) [3-allyloxy-1,2-propanediol]",-0.46
5,"C#CCOCC(O)CO (stereo not shown) [3-(2-propynyloxy)-1,2-propanediol]",0.75
6,"COCC(O)CO (stereo not shown) [3-methoxy-1,2-propanediol]",-0.62
7,"CCCCOCC(O)CO (stereo not shown) [3-butoxy-1,2-propanediol]",0.59
